Experiment: In vitro dissolution test, microcentrifuge method, in phosphate buffered saline (PBS) pH 6.5
Format: physicochemical
Description: The compositions comprising the CETP inhibitor and concentration-enhancing polymer provide enhanced concentration of the dissolved CETP inhibitor in in vitro dissolution tests. […] An appropriate PBS solution is an aqueous solution comprising 20 mM sodium phosphate (Na2HPO4), 47 mM potassium phosphate (KH2PO4), 87 mM NaCl, and 0.2 mM KCl, adjusted to pH 6.5 with NaOH. An appropriate MFD solution is the same PBS solution wherein additionally is present 7.3 mM sodium taurocholic acid and 1.4 mM of 1-palmitoyl-2-oleyl-sn-glycero-3-phosphocholine. In particular, a composition of the present invention can be dissolution-tested by adding it to MFD or PBS solution and agitating to promote dissolution.
Indeed, for some extremely insoluble CETP inhibitors, in order to identify the MDC achieved it may be necessary to use an amount of test composition such that if all of the CETP inhibitor dissolved, the CETP inhibitor concentration would be 10,000-fold or even more, that of the equilibrium concentration of the CETP inhibitor.
The MDC is taken to be the maximum value of dissolved CETP inhibitor measured over the duration of the test.
Filtration can be conducted using a 13 mm, 0.45 μm polyvinylidine difluoride syringe filter sold by Scientific Resources under the trademark TITAN®. Centrifugation is typically carried out in a polypropylene microcentrifuge tube by centrifuging at 13,000 G for 60 seconds. Other similar filtration or centrifugation methods can be employed and useful results obtained.
The spray-dried dispersions of Examples 6 and 7 were evaluated in an in vitro dissolution test using a microcentrifuge method. In this test, the spray-dried dispersion was added to a microcentrifuge tube for a Drug 2 dose of about 1000 μg/mL (7.2 mg for Example 6, 18 mg for Example 7). The tube was placed in a 37° C. sonicating bath, and 1.8 mL phosphate buffered saline (PBS) at pH 6.5 and 290 mOsm/kg was added. The samples were quickly mixed using a vortex mixer for about 60 seconds. The samples were centrifuged at 13,000 G at 37° C. for 1 minute. The resulting supernatant solution was then sampled and diluted 1:6 (by volume) with methanol and then analyzed by high-performance liquid chromatography (HPLC). The contents of the tubes were mixed on the vortex mixer and allowed to stand undisturbed at 37° C. until the next sample was taken. Samples were collected at 4, 10, 20, 40, 90, and 1200 minutes.
For Control 2, an in vitro dissolution test was performed using the procedures described above except that 1.8 mg of crystalline Drug 2 was used.
In this method, 7.2 mg of each spray-dried dispersion was added to a 2-mL microcentrifuge tube. The tube was placed in a 37° C. sonicating bath, and 1.8 mL of a phosphate-buffered saline (PBS) solution at pH 6.5 and 290 mOsm/kg was added, resulting in a TCmax of 400 μg/mL. The samples were quickly mixed using a combination of vortex mixer and sonication for about 90 seconds. The samples were centrifuged at 13,000 G at 37° C. for 1 minute. The resulting supernatant solution was then sampled and diluted 1:6 (by volume) with methanol and then analyzed by HPLC. The tubes were then mixed on the vortex mixer and allowed to stand undisturbed at 37° C. until the next sample. Samples were collected at 4, 10, 20, 40, 90 and 1200 minutes.
For Control 5, an in vitro dissolution test was performed using the procedure described above, except that 0.72 mg of non-crystalline Drug 3 was placed in a microcentrifuge tube and mixed with 1.8 mL of PBS.
In this method, 15 mg of each SDD was added to a 2-mL microcentrifuge tube. The tube was placed in a 37° C. sonicating bath, and 1.5 mL of a phosphate-buffered saline (PBS) solution at pH 6.5 and 290 mOsm/kg) was added, resulting in a TCmax of 1000 μg/mL. The samples were quickly mixed using a combination of vortex mixer and sonication for about 90 seconds.

[1] = PBS pH 6.5, 37° C., TCmax 1000 μg/mL, time 0 min
[2] = PBS pH 6.5, 37° C., TCmax 1000 μg/mL, time 4 min
[3] = PBS pH 6.5, 37° C., TCmax 1000 μg/mL, time 10 min
[4] = PBS pH 6.5, 37° C., TCmax 1000 μg/mL, time 20 min
[5] = PBS pH 6.5, 37° C., TCmax 1000 μg/mL, time 40 min
[6] = PBS pH 6.5, 37° C., TCmax 1000 μg/mL, time 90 min
[7] = Table 16, Drugs 4-9, PBS pH 6.5, 37° C., TCmax 1000 μg/mL
[8] = Table 13, Drug 3, PBS, TCmax 400 μg/mL

**Q.** Which AUC [1] does the source give for CCOC(=O)N1c2cc(CC)c(CC)cc2[C@@H](N(Cc2cc(C(F)(F)F)cc(C(F)(F)F)c2)C(=O)OC)C[C@H]1C [Control 7, [2R,4S]4-[(3,5-bis-trifluoromethyl-benzyl)-methoxycarbonyl-amino]-6,7-diethyl-2-methyl-3,4-dihydro-2H-quinoline-1-carboxylic acid ethyl ester] here?
**A.** 0 min-μg/mL

**Q.** And the Concentration [1]?
**A.** 0 ng/mL

**Q.** What about the AUC [2] of the same compound?
**A.** <4 min-μg/mL

**Q.** And the Concentration [2]?
**A.** <1000 ng/mL

**Q.** And the AUC [3]?
**A.** <10 min-μg/mL

**Q.** What about the Concentration [3] of the same compound?
**A.** <1000 ng/mL

**Q.** What about the AUC [4] of the same compound?
**A.** <20 min-μg/mL

**Q.** And the Concentration [4]?
**A.** <1000 ng/mL

**Q.** And the AUC [5]?
**A.** <40 min-μg/mL

**Q.** And the Concentration [5]?
**A.** <1000 ng/mL

**Q.** And the AUC [6]?
**A.** <90 min-μg/mL

**Q.** What about the Concentration [6] of the same compound?
**A.** <1000 ng/mL

**Q.** And the AUC90 [7]?
**A.** <90 min-μg/mL

**Q.** And the “Cmax, 90” value [7]?
**A.** <1000 ng/mL

**Q.** Which Concentration (Table 12, Drug 3, PBS pH 6.5, 37° C., 0 min, TCmax 400 μg/mL) does the source give for CCCOC(=O)N1c2ccc(C(F)(F)F)cc2[C@@H](N(Cc2cc(C(F)(F)F)cc(C(F)(F)F)c2)C(=O)OC)C[C@H]1CC [Control 5, [2R,4S]4-[(3,5-bis-trifluoromethyl-benzyl)-methoxycarbonyl-amino]-2-ethyl-6-trifluoromethyl-3,4-dihydro-2H-quinoline-1-carboxylic acid propyl ester] here?
**A.** 0 ng/mL

**Q.** And the Concentration (Table 12, Drug 3, PBS pH 6.5, 37° C., 4 min, TCmax 400 μg/mL)?
**A.** <100 ng/mL

**Q.** What about the Concentration (Table 12, Drug 3, PBS pH 6.5, 37° C., 10 min, TCmax 400 μg/mL) of the same compound?
**A.** <100 ng/mL

**Q.** What about the Concentration (Table 12, Drug 3, PBS pH 6.5, 37° C., 20 min, TCmax 400 μg/mL) of the same compound?
**A.** <100 ng/mL

**Q.** What about the Concentration (Table 12, Drug 3, PBS pH 6.5, 37° C., 40 min, TCmax 400 μg/mL) of the same compound?
**A.** <100 ng/mL

**Q.** What about the Concentration (Table 12, Drug 3, PBS pH 6.5, 37° C., 90 min, TCmax 400 μg/mL) of the same compound?
**A.** <100 ng/mL

**Q.** And the AUC (Table 12, Drug 3, PBS pH 6.5, 37° C., to 0 min, TCmax 400 μg/mL)?
**A.** 0 min-μg/mL

**Q.** And the AUC (Table 12, Drug 3, PBS pH 6.5, 37° C., to 4 min, TCmax 400 μg/mL)?
**A.** <0.4 min-μg/mL

**Q.** And the AUC (Table 12, Drug 3, PBS pH 6.5, 37° C., to 10 min, TCmax 400 μg/mL)?
**A.** <1.0 min-μg/mL

**Q.** And the AUC (Table 12, Drug 3, PBS pH 6.5, 37° C., to 20 min, TCmax 400 μg/mL)?
**A.** <2.0 min-μg/mL

**Q.** And the AUC (Table 12, Drug 3, PBS pH 6.5, 37° C., to 40 min, TCmax 400 μg/mL)?
**A.** <4.0 min-μg/mL

**Q.** And the AUC (Table 12, Drug 3, PBS pH 6.5, 37° C., to 90 min, TCmax 400 μg/mL)?
**A.** <9.0 min-μg/mL

**Q.** And the AUC90 [8]?
**A.** <9.0 min-μg/mL

**Q.** What about the “Cmax, 90” value [8] of the same compound?
**A.** <100 ng/mL

**Q.** With CC1(C)Cc2nc(C3CCCC3)c([C@@H](F)c3ccc(C(F)(F)F)cc3)c(-c3ccc(F)cc3)c2[C@@H](O)C1 [Control 11, [3S,5S]2-cyclopentyl-4-(4-fluoro-phenyl)-3-[fluoro-(4-trifluoromethyl-phenyl)-methyl]-7,7-dimethyl-5,6,7,8-tetrahydro-quinolin-5-ol] as the compound, how does the AUC [1] read?
**A.** 0 min-μg/mL

**Q.** And the Concentration [1]?
**A.** 0 ng/mL

**Q.** And the AUC [2]?
**A.** <4 min-μg/mL

**Q.** What about the Concentration [2] of the same compound?
**A.** <1000 ng/mL

**Q.** What about the AUC [3] of the same compound?
**A.** <10 min-μg/mL

**Q.** And the Concentration [3]?
**A.** <1000 ng/mL

**Q.** What about the AUC [4] of the same compound?
**A.** <20 min-μg/mL

**Q.** What about the Concentration [4] of the same compound?
**A.** <1000 ng/mL

**Q.** What about the AUC [5] of the same compound?
**A.** <40 min-μg/mL

**Q.** And the Concentration [5]?
**A.** <1000 ng/mL

**Q.** What about the AUC [6] of the same compound?
**A.** <90 min-μg/mL

**Q.** And the Concentration [6]?
**A.** <1000 ng/mL

**Q.** What about the AUC90 [7] of the same compound?
**A.** <90 min-μg/mL

**Q.** And the “Cmax, 90” value [7]?
**A.** <1000 ng/mL

**Q.** Which AUC [1] does the source give for COC(=O)N(Cc1cc(C(F)(F)F)cc(C(F)(F)F)c1)[C@H]1C[C@@H](C2CC2)N(C(=O)OC(C)C)c2ccc(C(F)(F)F)cc21 [Control 10, [2S,4S]4-[(3,5-bis-trifluoromethyl-benzyl)-methoxycarbonyl-amino]-2-cyclopropyl-6-trifluoromethyl-3,4-dihydro-2H-quinoline-1-carboxylic acid isopropyl ester] here?
**A.** 0 min-μg/mL

**Q.** What about the Concentration [1] of the same compound?
**A.** 0 ng/mL

**Q.** And the AUC [2]?
**A.** <4 min-μg/mL

**Q.** What about the Concentration [2] of the same compound?
**A.** <1000 ng/mL

**Q.** What about the AUC [3] of the same compound?
**A.** <10 min-μg/mL

**Q.** And the Concentration [3]?
**A.** <1000 ng/mL

**Q.** And the AUC [4]?
**A.** <20 min-μg/mL

**Q.** What about the Concentration [4] of the same compound?
**A.** <1000 ng/mL

**Q.** What about the AUC [5] of the same compound?
**A.** <40 min-μg/mL

**Q.** What about the Concentration [5] of the same compound?
**A.** <1000 ng/mL

**Q.** What about the AUC [6] of the same compound?
**A.** <90 min-μg/mL

**Q.** And the Concentration [6]?
**A.** <1000 ng/mL

**Q.** And the AUC90 [7]?
**A.** <90 min-μg/mL

**Q.** What about the “Cmax, 90” value [7] of the same compound?
**A.** <1000 ng/mL

**Q.** Which AUC [1] does the source give for CCOC(=O)N1c2cc(OC)c(OC)cc2[C@@H](N(Cc2cc(C(F)(F)F)cc(C(F)(F)F)c2)C(=O)OC)C[C@H]1C [Control 6, [2R,4S]4-[(3,5-bis-trifluoromethyl-benzyl)-methoxycarbonyl-amino]-6,7-dimethoxy-2-methyl-3,4-dihydro-2H-quinoline-1-carboxylic acid ethyl ester] here?
**A.** 0 min-μg/mL

**Q.** And the Concentration [1]?
**A.** 0 ng/mL

**Q.** And the AUC [2]?
**A.** <4 min-μg/mL

**Q.** And the Concentration [2]?
**A.** <1000 ng/mL

**Q.** And the AUC [3]?
**A.** <10 min-μg/mL

**Q.** And the Concentration [3]?
**A.** <1000 ng/mL

**Q.** And the AUC [4]?
**A.** <20 min-μg/mL

**Q.** What about the Concentration [4] of the same compound?
**A.** <1000 ng/mL

**Q.** What about the AUC [5] of the same compound?
**A.** <40 min-μg/mL

**Q.** And the Concentration [5]?
**A.** <1000 ng/mL

**Q.** What about the AUC [6] of the same compound?
**A.** <90 min-μg/mL

**Q.** What about the Concentration [6] of the same compound?
**A.** <1000 ng/mL

**Q.** And the AUC90 [7]?
**A.** <90 min-μg/mL

**Q.** And the “Cmax, 90” value [7]?
**A.** <1000 ng/mL

**Q.** What does the source list for CC[C@@H]1C[C@H](N(Cc2cc(C(F)(F)F)cc(C(F)(F)F)c2)C(=O)OC)c2cc(C(F)(F)F)ccc2N1C(=O)OC(C)C [Control 14, [2R,4S]4-[(3,5-bis-trifluoromethyl-benzyl)-methoxycarbonyl-amino]-2-ethyl-6-trifluoromethyl-3,4-dihydro-2H-quinoline-1-carboxylic acid isopropyl ester]?
**A.** AUC90 (Table 34: Drug 12, PBS): <88 min-μg/mL; Cmax, 90 (Table 34: Drug 12, PBS): <1000 ng/mL

From patent publication US8389011B2, “Pharmaceutical compositions of cholesteryl ester transfer protein inhibitors” (Bend Research, Inc., priority 2000, dated 2013)
